We go through five compounds from ChEMBL document CHEMBL1667721, “Isolation, structure elucidation, and cytotoxic evaluation of furanonaphthoquinones from in vitro plantlets and cultures of Streptocarpus dunnii” (J Nat Prod, 2011).

SMILES strings stand for the structures. Where only a bound is given, the exact number is not on record here.

The test system of test [1] is MCF7. The test can be described thus: Cytotoxicity against human MCF7 cells after 6 days.
Test [2] has as its system MIA PaCa-2. The test can be described thus: Cytotoxicity against human MIAPaCa2 cells after 6 days.
Test [3] relates to BT-474. As to the kind of experiment: Cytotoxicity against human BT474 cells after 6 days.
Test [4] can be described thus: Cytotoxicity against human Hs 578T cells after 6 days.
Test [5] is described as follows: Cytotoxicity against human Hs 578T cells after 24 hrs. The format is functional, cell-based.
The subject of test [6] is MIA PaCa-2. The test can be described thus: Cytotoxicity against human MIAPaCa2 cells after 24 hrs. The test is classed as functional, cell-based.
The subject of test [7] is BT-474. As to the kind of experiment: Cytotoxicity against human BT474 cells after 24 hrs. The test is classed as functional, cell-based.
Test [8] relates to MCF7. As to the kind of experiment: Cytotoxicity against human MCF7 cells after 24 hrs. The format is functional, cell-based.
The mark [9] stands for this setting: Homo sapiens, MCF7, 6 days, read-out: IC50.
[10] abbreviates: Homo sapiens, MIA PaCa-2, 6 days, read-out: IC50.
[11] abbreviates: Homo sapiens, BT-474, 6 days, read-out: IC50.
Where [12] appears, read: Homo sapiens, Hs-578T, 6 days, read-out: IC50.

Turning to `C[C@H]1OC2=C(C(=O)c3ccccc3C2=O)C1(C)C`, the IC50 with MCF7 [1] (setting [9]) was 5.8 µM; with MIA PaCa-2 [2] (setting [10]), 4.6 µM; in the test with BT-474 [3] (setting [11]), 4.5 µM; in test [4] (setting [12]), over 10 µM.

For the compound `C[C@H]1OC2=C(C(=O)c3ccc(O)cc3C2=O)C1(C)C`, the IC50 with MCF7 [1] (setting [9]) is 5.7 µM; in the test with MIA PaCa-2 [2] (setting [10]), 6.7 µM; in the test with BT-474 [3] (setting [11]), 4.9 µM; in test [4] (setting [12]), over 10 µM.

In the case of `Cc1ccc2c(c1O)C(=O)c1ccccc1C2=O`, the 50% inhibitory concentration (IC50) entry (in test [5]; with MIA PaCa-2 [6]; in the test on BT-474 [7]; in the test with MCF7 [8]) was “Not Active” each time.

On to `COc1cc2c(cc1O)C(=O)C1=C(O[C@H](C)C1(C)C)C2=O`, for which the IC50 entry (in the test on MCF7 [1] (mcf7); with MIA PaCa-2 [2] (mia paca-2); in the test with BT-474 [3] (bt-474); in test [4] (hs-578t)) was “Not Active” each time.

Turning to `C[C@H]1OC2=C(C(=O)C(=O)c3ccccc32)C1(C)C` [(3R)-DUNNIONE], the IC50 in the test with MCF7 [1] (setting [9]) was determined as 2.3 µM; in the test on MIA PaCa-2 [2] (setting [10]), 1.9 µM; with BT-474 [3] (setting [11]), 1 µM; in test [4] (setting [12]), 5 µM.
